Source: ChEMBL document CHEMBL3046906, “Effects of acibenzolar-S-methyl on the suppression of Fusarium wilt of cyclamen” (Crop Prot, 2006)
Calls of active or inactive are those of the source. The rule behind the calls is not given here.

Columns and labels:
Cyclamen persicum [1] = assay: Phytotoxicity in Cyclamen persicum seedlings assessed as decrease in effect on flower quality at 10 to 50 ug a.i/ml applied as spray; format: organism-based; details: in vivo, other
Cyclamen persicum [2] = assay: Phytotoxicity in Cyclamen persicum seedlings assessed as decrease in effect on flower number at 10 to 50 ug a.i/ml applied as spray; format: organism-based; details: in vivo, other
Cyclamen persicum [3] = assay: Phytotoxicity in Cyclamen persicum seedlings assessed as decrease in foliar dry mass at 10 to 50 ug a.i/ml applied as spray; format: organism-based; parameters: scale not given: the % may be the effect or the level left; details: in vivo, other
[4] = system: Fusarium oxysporum f. sp. cyclaminis; assay: Antifungal activity against Fusarium oxysporum f. sp. cyclaminis infested cyclamen seedlings assessed as increase in foliar dry mass at 10 to 50 ug a.i/ml applied as spray; format: functional, organism-based
Cyclamen persicum [5] = assay: Phytotoxicity in Cyclamen persicum seedlings assessed as decrease in foliar dry mass at 50 ug a.i/ml applied as spray; format: organism-based; parameters: scale not given: the % may be the effect or the level left; details: in vivo, other
[6] = system: Fusarium oxysporum f. sp. cyclaminis; assay: Antifungal activity against 1 CFU of Fusarium oxysporum f. sp. cyclaminis infested cyclamen seedlings assessed as increase in foliar dry mass at 50 ug a.i/ml applied as spray relative to untreated control; format: functional, organism-based
[7] = system: Fusarium oxysporum f. sp. cyclaminis; assay: Antifungal activity against […] of Fusarium oxysporum f. sp. cyclaminis infested cyclamen seedlings assessed as delay in development of disease symptoms at 50 ug a.i/ml applied as spray relative to untreated control; format: functional, organism-based
[8] = system: Fusarium oxysporum f. sp. cyclaminis; assay: Antifungal activity against 1 CFU of Fusarium oxysporum f. sp. cyclaminis infested cyclamen seedlings assessed as delay in development of decrease severity at 50 ug a.i/ml applied as spray; format: functional, organism-based
Cyclamen persicum [9] = assay: Phytotoxicity in Cyclamen persicum seedlings assessed as visible damage on leaves at 10 to 50 ug a.i/ml applied as spray; format: organism-based; details: in vivo, topical_or_ocular
[10] = system: Fusarium oxysporum f. sp. cyclaminis; assay: Antifungal activity against Fusarium oxysporum f. sp. cyclaminis infested cyclamen seedlings assessed as delay in development of disease symptoms at 50 ug a.i/ml applied as spray; format: functional

CSC(=O)c1cccc2nnsc12 [ACIBENZOLAR-S-METHYL]
Activity (Cyclamen persicum [1]): Non-toxic
Activity (Cyclamen persicum [2]): Non-toxic
Activity (Cyclamen persicum [3]): 36%
Activity [4]: Active
Activity (Cyclamen persicum [5]): 65%
Activity [6]: Active
Activity [7]: Active
Activity [8]: Active
Activity (Cyclamen persicum [9]): Non-toxic
Time [10]: 20 days
